The source of these data is patent US20190290574A1, “TOPICAL SKIN CARE COMPOSITIONS COMPRISING MYRSINE AFRICANA EXTRACTS” (University of Pretoria, priority 2015, published 2019).

Series [1] relates to human skin. The series can be described thus: Irritancy patch test. On the procedure: A sample of the ethanol extract was applied on the inner forearm of twenty (20) volunteers aged between 19-65 years using patch discs for 24 hours to determine irritancy. Visual assessments of the areas were made after 24, 48, 72 and 96 hours. Any reaction was graded as a score of 0, 0.5, 1, 2, 3, and 4, where 0 represented a no response and 4 a fiery redness, papules, oedema or bullae. The forearm of each volunteer included a positive control of sodium lauryl sulphate solution (1 g/100 mL) and a negative control of demineralised water.

Series [2] has as its target T1, porcine pancreatic elastase (Sus scrofa, UniProt P00772).
T1 construct: purchased Sigma E0258; host or cells: porcine pancreas (tissue-derived product)
The series can be described thus: Elastase inhibition assay (release of p-nitroaniline from N-Succinyl-Ala-Ala-Ala-p-nitroanilide). The format is biochemical. The settings on record: for inhibition at 5 µg/mL: 5 μg/mL; for inhibition at 10 µg/mL: 10 μg/mL; for inhibition at 25 µg/mL: 25 μg/mL; for inhibition at 50 µg/mL: 50 μg/mL; for IC50: read-out: IC50 (μg/mL) (95% Confidence Interval) (converted).
Method: The pancreatic elastase inhibitory activity was determined in vitro by the spectrophotometric determination of the release of p-nitroaniline from a synthetic substrate N-Succinyl-Ala-Ala-Ala-p-nitroanilide.
A sample stock solution of 500 μg/mL and 1120 μg/mL was prepared from M. africana leaf extract and compound respectively. Briefly, 2.5 mg of extract and 2.24 mg of the compound was weighed and dissolved in 100 μL of methanol. The volume was then made up to 5 mL for the extract and to 2 mL for the compound with 100mM Tris-HCl buffer, pH 8.0. Subsequent dilutions for the assay were made as required.
An elastase inhibition assay was carried out largely as per the method of Bieth et al. (1974) with modifications. In brief, a pre-incubation mixture contained 100 mM of either Tris-HCl buffer (pH 8.0), vehicle buffer, positive control, or test sample of various concentrations together with 4.942 mU of elastase enzyme. The reagents were mixed and the mixture was pre-incubated at 37° C. for 15 min. Following pre-incubation, substrate (N-Succinyl-Ala-Ala-Ala-p-nitroanilide) was added to a final concentration of 0.338 mM and the solution was mixed and incubated at 37° C. for 30 min. The absorbance was measured at 405 nm in a micro-plate reader (Versamax, Molecular devices, USA). A control reaction was carried out without the test sample.
The % inhibition of the enzyme was calculated as follows:
IC50 was calculated using log-probit analysis.

Where [3] appears, read: Compound MA-NR-01 run, read-out: % Inhibition (Mean ± SEM).
[4] abbreviates: MA ethanolic extract run, read-out: % Inhibition (Mean ± SEM).

Where two headings read alike, the source gives them in different places.

T1 sequence (P00772 27-266): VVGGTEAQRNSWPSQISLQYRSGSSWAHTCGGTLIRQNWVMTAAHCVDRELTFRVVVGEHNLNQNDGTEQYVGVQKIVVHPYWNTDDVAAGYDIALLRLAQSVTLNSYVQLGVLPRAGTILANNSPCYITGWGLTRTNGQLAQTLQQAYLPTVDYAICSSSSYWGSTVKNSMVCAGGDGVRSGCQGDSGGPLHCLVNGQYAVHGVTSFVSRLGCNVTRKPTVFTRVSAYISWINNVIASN

As to `CCCCCCCCCCCCOS(=O)(=O)[O-].[Na+]` [Positive Control Right, sodium lauryl sulphate], the “Number of subjects with reactions after 48 hours” value in series [1] (20 volunteers, 48 hours) was determined as 12. Besides, the Irritancy entry in series [1] (patch test on human subjects) is listed as “Irritant”. In series [1] (patch test, 20 volunteers, results after 96 hours), this molecule registered an Average value of 0.54. The same molecule returned an Average score in series [1] (patch test, score scale 0-4, results after 96 hours) of 1.03. Also, in series [1] (relative to positive control sodium lauryl sulphate and negative control water), the “Irritancy potential % (TP-NC)/(PC-NC)” value worked out at 100%.

Consider `C[C@H]1[C@H](C)CC[C@]2(C(=O)O)CC[C@]3(C)C(=CC[C@@H]4[C@@]5(C)CC[C@H](O)C(C)(C)[C@@H]5CC[C@]43C)[C@H]12` [Ursolic Acid, ursolic acid], for which the inhibition at 2.5 µg/mL in series [2] (2.5 μg/mL, Compound MA-NR-01 run, read-out: % Inhibition (Mean ± SEM)) was 10.6 ± 0.32%. In series [2] (setting [3]), the inhibition at 5 µg/mL was 21.1 ± 0.53%, the inhibition at 10 µg/mL came to 40.1 ± 1.22%, the inhibition at 25 µg/mL was found to be 58.85 ± 0.17% and the inhibition at 50 µg/mL turned out to be 62.1 ± 1.18%. Moreover, in series [2] (setting [4]), the inhibition at 5 µg/mL worked out at 13.2 ± 2.25%, the inhibition at 10 µg/mL was determined as 24.1 ± 4.5%, the inhibition at 25 µg/mL came to 41.4 ± 0.92% and the inhibition at 50 µg/mL amounted to 53.2 ± 0.56%. Also, in series [2] (run of Compound MA-NR-01 (right half of Table 1)), the IC50 was 45.5 µM. Further, the IC50 in series [2] (run of MA ethanolic extract (left half of Table 1)) was 88.9 µM.

Turning to Myrsinoside B [MA-NR-01], the “% Inhibition (Mean ± SEM)” value in series [2] (7.8125 μg/mL, Compound MA-NR-01 run) worked out at 11.79 ± 4.35%; in series [2] (15.625 μg/mL, Compound MA-NR-01 run), 4.79 ± 1.66%; in series [2] (31.25 μg/mL, Compound MA-NR-01 run), 6.76 ± 4.57%; in series [2] (62.5 μg/mL, Compound MA-NR-01 run), 5.73 ± 1.04%; in series [2] (125 μg/mL, Compound MA-NR-01 run), 13.00±1.04%; in series [2] (250 μg/mL, Compound MA-NR-01 run), 25.75 ± 1.46%. The “% Inhibition (Mean ± SEM)” value in series [2] (500 μg/mL, Compound MA-NR-01 run) was 31.02 ± 1.22%.

The term inhibition denotes the change of the read-out against control, counted positive when it falls.
